Assay [1] has as its target T1, α2 subtype containing GABA-A receptors (Homo sapiens, UniProt P18507+P47869).
T1 construct: expressed in transfected cells; host or cells: Xenopus laevis oocytes, cRNA injected
Nature of the assay: Two-electrode voltage clamp electrophysiology in Xenopus oocytes, potentiation of GABA EC20 response, α2. To be noted: 100 nM compound; for activation at 0.1 µM: read-out: Percentage of potentiation alpha2. Format: cell-based. Put shortly: (§1)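 Test compounds (100 nM) were assessed for enhancement of a 60 μM (EC20) GABA current in two-electrode-clamped oocytes (−80 mV, ND96 pH 7.5) injected with human αx (1, 2, 3 or 5), β3 and γ2L cRNA. Each oocyte received a 1 μM chlordiazepoxide standard first and was excluded if expression or γ2L incorporation was insufficient.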
For orientation: In two-electrode clamp one electrode senses voltage and the other passes current.

Assay [2] addresses T2, α1 subtype containing GABA-A receptors (Homo sapiens, UniProt P14867+P18507).
T2 construct: expressed in transfected cells; host or cells: Xenopus laevis oocytes, cRNA injected
Briefly: Two-electrode voltage clamp electrophysiology in Xenopus oocytes, potentiation of GABA EC20 response, α1. Format: cell-based. As to conditions: 100 nM compound; for activation at 0.1 µM: read-out: Percentage of potentiation alpha1. Put shortly:
as §1

For assay [3], the system named is central benzodiazepine receptors. Briefly: Central benzodiazepine receptor binding (test of Speth et al.). To be noted: 1000 nM of the compound. In short, it runs like this:
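Values are percent inhibition of central benzodiazepine receptor binding at 1000 nM compound (initial single-point screen at 1.0E-09, 1.0E-07 and 1.0E-05 M). Speth et al. binding test; nonspecific binding defined with excess unlabelled ligand and subtracted from total.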

T2 sequence (P14867 28-456): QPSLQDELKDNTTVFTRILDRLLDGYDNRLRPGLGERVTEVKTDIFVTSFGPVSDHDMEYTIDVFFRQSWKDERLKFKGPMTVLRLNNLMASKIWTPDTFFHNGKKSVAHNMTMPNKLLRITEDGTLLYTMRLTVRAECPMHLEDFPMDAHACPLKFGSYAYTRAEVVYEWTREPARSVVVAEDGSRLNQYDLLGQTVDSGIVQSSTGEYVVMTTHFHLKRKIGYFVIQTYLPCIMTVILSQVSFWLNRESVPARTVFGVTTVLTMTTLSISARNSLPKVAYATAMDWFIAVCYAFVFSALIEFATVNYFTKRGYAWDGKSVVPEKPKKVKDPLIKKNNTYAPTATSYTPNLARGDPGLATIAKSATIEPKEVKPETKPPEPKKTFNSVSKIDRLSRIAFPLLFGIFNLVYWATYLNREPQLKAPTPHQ
T2 sequence (P28472 26-473 partner): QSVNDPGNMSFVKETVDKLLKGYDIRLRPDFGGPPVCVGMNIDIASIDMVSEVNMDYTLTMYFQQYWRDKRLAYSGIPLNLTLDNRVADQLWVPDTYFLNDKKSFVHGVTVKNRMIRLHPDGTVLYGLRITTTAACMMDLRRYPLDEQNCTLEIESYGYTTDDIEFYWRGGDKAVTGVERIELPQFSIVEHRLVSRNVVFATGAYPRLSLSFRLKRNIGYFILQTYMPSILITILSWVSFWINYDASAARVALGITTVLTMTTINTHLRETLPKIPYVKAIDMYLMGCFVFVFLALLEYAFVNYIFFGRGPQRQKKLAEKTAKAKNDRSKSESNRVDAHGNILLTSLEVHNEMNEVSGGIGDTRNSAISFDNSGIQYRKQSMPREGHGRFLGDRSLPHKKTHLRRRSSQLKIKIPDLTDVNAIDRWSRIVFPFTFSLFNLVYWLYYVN
T2 sequence (P18507 40-475): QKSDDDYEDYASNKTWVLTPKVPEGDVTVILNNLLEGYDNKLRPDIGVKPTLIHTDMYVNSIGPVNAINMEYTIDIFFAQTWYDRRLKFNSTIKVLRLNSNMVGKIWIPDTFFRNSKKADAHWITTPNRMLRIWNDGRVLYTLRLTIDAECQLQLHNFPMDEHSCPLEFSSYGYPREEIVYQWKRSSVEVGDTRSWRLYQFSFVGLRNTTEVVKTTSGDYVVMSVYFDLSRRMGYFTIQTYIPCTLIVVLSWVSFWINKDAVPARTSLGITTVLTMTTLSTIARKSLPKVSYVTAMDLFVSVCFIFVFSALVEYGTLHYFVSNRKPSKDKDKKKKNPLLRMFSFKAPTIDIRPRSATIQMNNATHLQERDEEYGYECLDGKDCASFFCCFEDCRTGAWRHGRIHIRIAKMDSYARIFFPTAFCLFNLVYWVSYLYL
T1 sequence (P47869 29-451): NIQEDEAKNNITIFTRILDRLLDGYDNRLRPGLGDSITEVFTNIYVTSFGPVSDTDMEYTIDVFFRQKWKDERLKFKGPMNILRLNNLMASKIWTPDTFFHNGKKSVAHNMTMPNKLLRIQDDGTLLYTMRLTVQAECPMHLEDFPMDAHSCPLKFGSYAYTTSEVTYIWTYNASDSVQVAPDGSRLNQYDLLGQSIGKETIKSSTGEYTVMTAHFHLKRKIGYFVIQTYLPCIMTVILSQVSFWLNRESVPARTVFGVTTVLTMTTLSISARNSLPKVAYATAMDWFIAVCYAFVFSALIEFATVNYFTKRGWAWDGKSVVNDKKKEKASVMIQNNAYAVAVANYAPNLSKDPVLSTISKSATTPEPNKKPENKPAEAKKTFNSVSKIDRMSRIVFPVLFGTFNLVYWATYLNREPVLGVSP
T1 sequence (P28472 26-473 partner): as the sequence (P28472 26-473 partner) above
T1 sequence (P18507 40-475): as the sequence (P18507 40-475) above

Consider `Cc1ccc(-c2nc3ccc(C)cn3c2Cn2ccnn2)cc1` [Compound 6, 3-((1H-1,2,3-triazol-1-yl)methyl)-6-methyl-2-p-tolylH-imidazo[1,2-a]pyridine], for which the “Percentage of potentiation alpha2” value in assay [1] is given as “+ (percentage of potentiation is greater than or equal to 10% but less than 50% in the presence of 100 nM of the compound)”. For the same compound, the “Percentage of potentiation alpha1” value in assay [2] was “+ (percentage of potentiation is greater than or equal to 10% but less than 50% in the presence of 100 nM of the compound)”. Also, the “% Inhibition at 1000 nM for CBZD” value in assay [3] is given as “++ (percentage of inhibition of central BZD site binding is greater than 80% in the presence of 1000 nM of the compound)”.
Consider `O=c1nc(N2CCCC2)ccn1Cc1c(-c2ccc(Cl)cc2)nc2ccccn12` [Compound 136, 1-((2-(4-chlorophenyl)imidazo[1,2-a]pyridin-3-yl)methyl)-4-(pyrrolidin-1-yl)pyrimidin-2(1H)-one], for which the activation at 0.1 µM in assay [1] was at least 50%; in assay [2] it was 10 to 50%. In addition, the “% Inhibition at 1000 nM for CBZD” value in assay [3] is “++ (percentage of inhibition of central BZD site binding is greater than 80% in the presence of 1000 nM of the compound)”.
In the same order, the values of `CC1(O)CCN(c2ccnc(NCc3c(-c4ccccc4)nc4ccc(Cl)cn34)n2)CC1` [Compound 187, 1-(2-((6-chloro-2-phenylimidazo[1,2-a]pyridin-3-yl)methylamino)pyrimidin-4-yl)-4-methylpiperidin-4-ol] are -10 to 10%, at most -10% and “++ (percentage of inhibition of central BZD site binding is greater than 80% in the presence of 1000 nM of the compound)”.
For `CNNc1cncc(Cc2c(-c3ccc(Cl)cc3)nc3ccccn23)n1` [Compound 193, 2-(4-chlorophenyl)-3-((6-(2-methylhydrazinyl)pyrazin-2-yl)methyl)imidazo[1,2-a]pyridine], in that order: 10 to 50%, 10 to 50% and “++ (percentage of inhibition of central BZD site binding is greater than 80% in the presence of 1000 nM of the compound)”.
In the same order, the values of `OC[C@H]1CCCN1c1ccnc(NCc2c(-c3ccccc3)nc3ccc(Cl)cn23)n1` [Compound 188, (R)-(1-(2-((6-chloro-2-phenylimidazo[1,2-a]pyridin-3-yl)methylamino)pyrimidin-4-yl)pyrrolidin-2-yl)methanol] are at least 50%, at least 50% and “++ (percentage of inhibition of central BZD site binding is greater than 80% in the presence of 1000 nM of the compound)”.
Turning to `Clc1ccc(-c2nc3ccccn3c2Cn2nc3ccccc3n2)cc1` [Compound 43, 2-((2-(4-chlorophenyl)H-imidazo[1,2-a]pyridin-3-yl)methyl)-2H-benzo[d][1,2,3]triazole], in assay [1], the “Percentage of potentiation alpha2” value is “+ (percentage of potentiation is greater than or equal to 10% but less than 50% in the presence of 100 nM of the compound)”. For the same compound, the “Percentage of potentiation alpha1” value in assay [2] is recorded as 0 (percentage of potentiation is between about 10% to about −10%). Besides, the “% Inhibition at 1000 nM for CBZD” value in assay [3] is “++ (percentage of inhibition of central BZD site binding is greater than 80% in the presence of 1000 nM of the compound)”.
`Brc1ccc(-c2nc3ccccn3c2Cn2cncn2)cc1` [Compound 64, 3-((1H-1,2,4-triazol-1-yl)methyl)-2-(4-bromophenyl)H-imidazo[1,2-a]pyridine]: the “Percentage of potentiation alpha2” value in assay [1] is recorded as “+ (percentage of potentiation is greater than or equal to 10% but less than 50% in the presence of 100 nM of the compound)”. For the same compound, the “Percentage of potentiation alpha1” value in assay [2] was “+ (percentage of potentiation is greater than or equal to 10% but less than 50% in the presence of 100 nM of the compound)”. In addition, the “% Inhibition at 1000 nM for CBZD” value in assay [3] is listed as “++ (percentage of inhibition of central BZD site binding is greater than 80% in the presence of 1000 nM of the compound)”.
For `Cc1ccc2nc(-c3ccc(F)cc3)c(Cn3cncn3)n2c1` [Compound 63, 3-((1H-1,2,4-triazol-1-yl)methyl)-2-(4-fluorophenyl)-6-methylH-imidazo[1,2-a]pyridine], the “Percentage of potentiation alpha2” value in assay [1] is recorded as 0 (percentage of potentiation is between about 10% to about −10%). In assay [2], the “Percentage of potentiation alpha1” value is on record as “+ (percentage of potentiation is greater than or equal to 10% but less than 50% in the presence of 100 nM of the compound)”. Further, the “% Inhibition at 1000 nM for CBZD” value in assay [3] was “++ (percentage of inhibition of central BZD site binding is greater than 80% in the presence of 1000 nM of the compound)”.
As for `CNC(=O)c1ncnn1Cc1c(-c2ccc(Cl)cc2)nc2ccc(Cl)cn12` [Compound 81, 2-[6-Chloro-2-(4-chloro-phenyl)-imidazo[1,2-a]pyridin-3-ylmethyl]-2H-[1,2,4]triazole-3-carboxylic acid methylamide], the activation at 0.1 µM in assay [1] and in assay [2] was 10 to 50% throughout. In assay [3], the “% Inhibition at 1000 nM for CBZD” value is “++ (percentage of inhibition of central BZD site binding is greater than 80% in the presence of 1000 nM of the compound)”.
In the case of `Fc1ccc(-c2nc3ccc(Cl)cn3c2CNc2nccc(C3CCCN3)n2)cc1` (stereo not drawn) [Compound 195], the activation at 0.1 µM in assay [1] and in assay [2] was at least 50% throughout. The “% Inhibition at 1000 nM for CBZD” value in assay [3] was “++ (percentage of inhibition of central BZD site binding is greater than 80% in the presence of 1000 nM of the compound)”.
As for `Fc1ccc(-c2nc3ccc(Cl)cn3c2CNc2nccc(CN3CCCC3)n2)cc1` [Compound 198, N-((6-chloro-2-(4-fluorophenyl)imidazo[1,2-a]pyridin-3-yl)methyl)-4-(pyrrolidin-1-ylmethyl)pyrimidin-2-amine], the activation at 0.1 µM in assay [1] and in assay [2] was at least 50% each time. The “% Inhibition at 1000 nM for CBZD” value in assay [3] is “++ (percentage of inhibition of central BZD site binding is greater than 80% in the presence of 1000 nM of the compound)”.
With `Cc1noc(-c2nccn2Cc2c(-c3ccc(Cl)cc3)nc3ccccn23)n1` [Compound 27, 2-(4-chlorophenyl)-3-((2-(3-methyl-1,2,4-oxadiazol-5-yl)-1H-imidazol-1-yl)methyl)H-imidazo[1,2-a]pyridine], the “Percentage of potentiation alpha2” value in assay [1] is “+ (percentage of potentiation is greater than or equal to 10% but less than 50% in the presence of 100 nM of the compound)”. The “Percentage of potentiation alpha1” value in assay [2] is “+ (percentage of potentiation is greater than or equal to 10% but less than 50% in the presence of 100 nM of the compound)”. The “% Inhibition at 1000 nM for CBZD” value in assay [3] was “++ (percentage of inhibition of central BZD site binding is greater than 80% in the presence of 1000 nM of the compound)”.
Turning to `CN(CCO)c1cncc(Cc2c(-c3ccc(Cl)cc3)nc3ccccn23)n1` [Compound 192, 2-((6-((2-(4-chlorophenyl)imidazo[1,2-a]pyridin-3-yl)methyl)pyrazin-2-yl)(methyl)amino)ethanol], the activation at 0.1 µM in assay [1] and in assay [2] was 10 to 50% each time. For the same compound, in assay [3], the “% Inhibition at 1000 nM for CBZD” value is “++ (percentage of inhibition of central BZD site binding is greater than 80% in the presence of 1000 nM of the compound)”.
On to `Cc1nnc(Cc2c(-c3ccc(Cl)cc3)nc3ccccn23)[nH]1` [Compound 233, 2-(4-chlorophenyl)-3-((5-methyl-4H-1,2,4-triazol-3-yl)methyl)imidazo[1,2-a]pyridine], for which the activation at 0.1 µM in assay [1] is at least 50%; in assay [2] it was 10 to 50%. In addition, in assay [3], the “% Inhibition at 1000 nM for CBZD” value was “++ (percentage of inhibition of central BZD site binding is greater than 80% in the presence of 1000 nM of the compound)”.
In the same order, the values of `Cc1cccc(=O)n1Cc1c(-c2ccc(Cl)cc2)nc2ccc(F)cn12` [Compound 120, 1-((2-(4-chlorophenyl)-6-fluoroimidazo[1,2-a]pyridin-3-yl)methyl)-6-methylpyridin-2(1H)-one] are at least 50%, at least 50% and “++ (percentage of inhibition of central BZD site binding is greater than 80% in the presence of 1000 nM of the compound)”.
As to `Cc1ccc2nc(-c3ccc(F)cc3)c(CNc3nc(C)cc(Cl)n3)n2c1` [Compound 160, 4-chloro-N-((2-(4-fluorophenyl)-6-methylimidazo[1,2-a]pyridin-3-yl)methyl)-6-methylpyrimidin-2-amine], the activation at 0.1 µM in assay [1] and in assay [2] was 10 to 50% throughout. Further, the “% Inhibition at 1000 nM for CBZD” value in assay [3] is “++ (percentage of inhibition of central BZD site binding is greater than 80% in the presence of 1000 nM of the compound)”.
Consider `Cc1cccn(Cc2c(-c3ccc(Cl)cc3)nc3ccc(F)cn23)c1=O` [Compound 121, 1-((2-(4-chlorophenyl)-6-fluoroimidazo[1,2-a]pyridin-3-yl)methyl)-3-methylpyridin-2(1H)-one], for which the activation at 0.1 µM in assay [1] and in assay [2] was at least 50% each time. In assay [3], the “% Inhibition at 1000 nM for CBZD” value is “++ (percentage of inhibition of central BZD site binding is greater than 80% in the presence of 1000 nM of the compound)”.
Turning to `O=C1CCN1Cc1c(-c2ccccc2)nc2ccc(Cl)cn12` [Compound 115, 1-(6-Chloro-2-phenyl-imidazo[1,2-a]pyridin-3-ylmethyl)-azetidin-2-one], the activation at 0.1 µM in assay [1] and in assay [2] was 10 to 50% each time. In addition, the “% Inhibition at 1000 nM for CBZD” value in assay [3] is “++ (percentage of inhibition of central BZD site binding is greater than 80% in the presence of 1000 nM of the compound)”.
